Assay results: US10449208B2, “Antiviral prodrugs of tenofovir” (Merck Sharp & Dohme Corp., priority 2016, dated 2019)
Like-named read-outs stand apart in the source and are kept apart here.

System: HIV-1 (H9/IIIB strain)
Experiment: Multiple round HIV-1 infection assay (Viking assay) in MT4-GFP cells
Assay type: cell-based
Settings: MT4-GFP cells infected with HIV-1 H9/IIIB, inhibition of reproductive ratio R0
Method: Assessing Antiviral Potency in a Multiple Round HIV-1 Infection Assay (Viking Assay)
The antiviral activity of the tenofovir prodrugs of the Examples herein was assessed in an assay that measures the rate of replication of HIV in cell culture, termed the Viking assay (Viral KINetics in Green cells) and performed as follows. HIV-1 replication was monitored using MT4-gag-GFP clone D3 (hereafter designated MT4-GFP), which are MT-4 cells modified to harbor a GFP reporter gene, the expression of which is dependent on the HIV-1 expressed proteins tat and rev. Productive infection of an MT4-GFP cell with HIV-1 results in GFP expression approximately 24 h post-infection. MT4-GFP cells were maintained at 37° C./5% CO2/90% relative humidity in RPMI 1640 supplemented with 10% fetal bovine serum, 100 μ/ml penicillin/streptomycin, and 400 μg/ml G418 to maintain the reporter gene. For infections, MT4-GFP cells were placed in the same medium lacking G418 and infected overnight with HIV-1 (H9/IIIB strain) virus at an approximate multiplicity of infection of 0.01 in the same incubation conditions. Cells were then washed and re-suspended in either RPMI 1640 supplemented with 10% or 50% normal human serum (NFIS) at 1.6×10^5 cells/mL (10% NHS or 50% NHS, respectively). Compound plates were prepared by dispensing compounds dissolved in DMSO into wells of 384 well poly-D -lysine-coated plates (0.2 μl/well) using an ECHO acoustic dispenser. Each compound was tested in a 10-point serial 3-fold dilution (typical final concentrations: 8.4 μM-0.42 nM). Controls included no inhibitor (DMSO only) and a combination of three antiviral agents (efavirenz, indinavir, an in-house integrase strand transfer inhibitor at final concentrations of 4 μM each). Cells were added (50 μL/well) to compound plates and the infected cells were maintained at 37° C./5% CO2/90% relative humidity.
infected cells were quantified at two time points, ˜48 h and ˜72 h post -infection, by counting the number of green cells in each well using an Acumen eX3 scanner. The increase in the number of green cells over ˜24 h period gives the reproductive ratio, R0, which is typically 5-15 and has been shown experimentally to be in logarithmic phase (data not shown). Inhibition of R0 is calculated for each well, and IC50s determined by non-linear 4-parameter curve fitting.

[1] = Human immunodeficiency virus 1, IIIB, 10% normal human serum, read-out: Viking, IC50 (10% NHS)
[2] = Human immunodeficiency virus 1, IIIB, 50% normal human serum, read-out: Viking, IC50 (50% NHS)
[3] = 10% normal human serum, read-out: Viking, IC50 (10% NHS)
[4] = 50% normal human serum, read-out: Viking, IC50 (50% NHS)

| Structure (SMILES) | IC50 [1] [nM] | IC50 [2] [nM] | IC50 [3] [nM] | IC50 [4] [nM] |
| --- | --- | --- | --- | --- |
| C[C@H](Cn1cnc2c(N)ncnc21)OCP(=O)(NC(C)(C)C(=O)OC1CCCC1)O[C@@H](C)C(=O)OC1CCCC1 (single isomer, unassigned) [Example 5A] | 5.71 | 45 |  |  |
| C[C@H](Cn1cnc2c(N)ncnc21)OCP(=O)(NC(C)(C)C(=O)OC1CCCC1)O[C@@H](C)C(=O)OC1CCCC1 (single isomer, unassigned) [Example 5B] |  |  | 5.73 | 23.4 |
| CCCCCCOC(=O)C(C)(C)NP(=O)(CO[C@H](C)Cn1cnc2c(N)ncnc21)O[C@H](C)C(=O)OC(C)C (single isomer, unassigned) [Example 9A] |  |  | 4.2 | 26.1 |
| CCCCCOC(=O)[C@H](C)OP(=O)(CO[C@H](C)Cn1cnc2c(N)ncnc21)NC(C)(C)C(=O)OC(C)C (single isomer, unassigned) [Example 10A] |  |  | 26.3 | 142 |
| CCCCCOC(=O)[C@H](C)OP(=O)(CO[C@H](C)Cn1cnc2c(N)ncnc21)NC(C)(C)C(=O)OC(C)C (single isomer, unassigned) [Example 10B] |  |  | 85.6 | 357 |
| CCCCOC(=O)C(C)(C)NP(=O)(CO[C@H](C)Cn1cnc2c(N)ncnc21)O[C@@H](C)C(=O)OC1CCCC1 (single isomer, unassigned) [Example 11A] |  |  | 24.8 | 66.2 |
| CCCCOC(=O)C(C)(C)NP(=O)(CO[C@H](C)Cn1cnc2c(N)ncnc21)O[C@@H](C)C(=O)OC1CCCC1 (single isomer, unassigned) [Example 11B] |  |  | 3.98 | 22.8 |
| CC(C)OC(=O)[C@H](C)OP(=O)(CO[C@H](C)Cn1cnc2c(N)ncnc21)NC(C)(C)C(=O)OC1CCCCC1 (single isomer, unassigned) [Example 12B] |  |  | 6.07 | 13.5 |
| CC(C)OC(=O)COP(=O)(CO[C@H](C)Cn1cnc2c(N)ncnc21)NC(C)(C)C(=O)OC1CCCC1 (single isomer, unassigned) [Example 14A] | 10 | 23.5 |  |  |
| CC(C)OC(=O)COP(=O)(CO[C@H](C)Cn1cnc2c(N)ncnc21)NC(C)(C)C(=O)OC1CCCC1 (single isomer, unassigned) [Example 14B] |  |  | 5.4 | 36.2 |
| CC(C)OC(=O)COP(=O)(CO[C@H](C)Cn1cnc2c(N)ncnc21)NC(C)(C)C(=O)OC1CCCCC1 (single isomer, unassigned) [Example 15A] | 9.98 | 28.5 |  |  |
| CC(C)OC(=O)COP(=O)(CO[C@H](C)Cn1cnc2c(N)ncnc21)NC(C)(C)C(=O)OC1CCCCC1 (single isomer, unassigned) [Example 15B] |  |  | 10.3 | 44.2 |
| CC(C)OC(=O)[C@H](C)OP(=O)(CO[C@H](C)Cn1cnc2c(N)ncnc21)NC(C)(C)C(=O)OC1CCC1 (single isomer, unassigned) [Example 16A] | 2.61 |  |  | 7.5 |
| CC(C)OC(=O)[C@H](C)OP(=O)(CO[C@H](C)Cn1cnc2c(N)ncnc21)NC(C)(C)C(=O)OC1CCC1 (single isomer, unassigned) [Example 16B] |  |  | 4.75 | 17.1 |
| CC(C)OC(=O)COP(=O)(CO[C@H](C)Cn1cnc2c(N)ncnc21)NC(C)(C)C(=O)OC1CCC1 (single isomer, unassigned) [Example 17A] | 6.39 | 12.7 |  |  |
| CCCCCOC(=O)C(C)(C)NP(=O)(CO[C@H](C)Cn1cnc2c(N)ncnc21)O[C@@H](C)C(=O)OC1CCCC1 (single isomer, unassigned) [Example 19A] |  |  | 14 | 49.7 |
| CCOC(=O)C(C)(C)NP(=O)(CO[C@H](C)Cn1cnc2c(N)ncnc21)OCC(=O)OC(C)C (stereo partly drawn) [Example 27, Ethyl 2-((((((R)-1-(6-amino-9H-purin-9-yl)propan-2-yl)oxy)methyl)(2-isopropoxy-2-oxoethoxy)phosphoryl)amino)-2-methylpropanoate] | 10.1 | 13.3 |  |  |
| CCOC(=O)C(C)(C)NP(=O)(CO[C@H](C)Cn1cnc2c(N)ncnc21)O[C@@H](C)C(=O)OC(C)C (stereo partly drawn) [Example 28, Ethyl 2-((((((R)-1-(6-amino-9H-purin-9-yl)propan-2-yl)oxy)methyl)(((S)-1-isopropoxy-1-oxopropan-2-yl)oxy)phosphoryl)amino)-2-methylpropanoate] | 6.38 | 19.7 |  |  |
| CCOC(=O)C(C)(C)NP(=O)(CO[C@H](C)Cn1cnc2c(N)ncnc21)O[C@H](C)C(=O)OC(C)C (stereo partly drawn) [Example 29, Ethyl 2-((((((R)-1-(6-amino-9H-purin-9-yl)propan-2-yl)oxy)methyl)(((R)-1-isopropoxy-1-oxopropan-2-yl)oxy)phosphoryl)amino)-2-methylpropanoate] | 9.22 | 17.2 |  |  |
| CC(C)COC(=O)C(C)(C)NP(=O)(CO[C@H](C)Cn1cnc2c(N)ncnc21)OCC(=O)OC(C)C (stereo partly drawn) [Example 30, Isobutyl 2-((((((R)-1-(6-amino-9H-purin-9-yl)propan-2-yl)oxy)methyl)(2-isopropoxy-2-oxoethoxy)phosphoryl)amino)-2-methylpropanoate] | 4.38 | 12 |  |  |
| CC(C)OC(=O)[C@H](Cc1ccccc1)OP(=O)(CO[C@H](C)Cn1cnc2c(N)ncnc21)NC(C)(C)C(=O)OC(C)C (stereo partly drawn) [Example 32, Isopropyl 2-((((((R)-1-(6-amino-9H-purin-9-yl)propan-2-yl)oxy)methyl)(((S)-1-isopropoxy-1-oxo-3-phenylpropan-2-yl)oxy)phosphoryl)amino)-2-methylpropanoate] | 3.34 | 23.2 |  |  |
| CCCCCCOC(=O)C(C)(C)NP(=O)(CO[C@H](C)Cn1cnc2c(N)ncnc21)O[C@@H](C)C(=O)OC1CCCC1 (stereo partly drawn) [Example 34, Hexyl 2-((((((R)-1-(6-amino-9H-purin-9-yl)propan-2-yl)oxy)methyl)(((S)-1-(cyclopentyloxy)-1-oxopropan-2-yl)oxy)phosphoryl)amino)-2-methylpropanoate] | 3.57 | 12.9 |  |  |
| CCCCCCOC(=O)C(C)(C)NP(=O)(CO[C@H](C)Cn1cnc2c(N)ncnc21)OCC(=O)OC1CCCC1 (some centres unmarked) [Example 35] | 3.83 | 14 |  |  |
| CC(C)COC(=O)C(C)(C)NP(=O)(CO[C@H](C)Cn1cnc2c(N)ncnc21)O[C@@H](C)C(=O)OC1CCCC1 (stereo partly drawn) [Example 37, Isobutyl 2-((((((R)-1-(6-amino-9H-purin-9-yl)propan-2-yl)oxy)methyl)(((S)-1-(cyclopentyloxy)-1-oxopropan-2-yl)oxy)phosphoryl)amino)-2-methylpropanoate] | 10.3 | 63.1 |  |  |
| CC(C)OC(=O)[C@H](C)OP(=O)(CO[C@H](C)Cn1cnc2c(N)ncnc21)NC(C)(C)C(=O)OC1CCCC1 (stereo partly drawn) [Example 39, Cyclopentyl 2-((((((R)-1-(6-amino-9H-purin-9-yl)propan-2-yl)oxy)methyl)(((S)-1-isopropoxy-1-oxopropan-2-yl)oxy)phosphoryl)amino)-2-methylpropanoate] | 3.43 | 12.6 |  |  |
| CCOC(=O)[C@H](C)OP(=O)(CO[C@H](C)Cn1cnc2c(N)ncnc21)NC(C)(C)C(=O)OC(C)C (stereo partly drawn) [Example 40, Isopropyl 2-((((((R)-1-(6-amino-9H-purin-9-yl)propan-2-yl)oxy)methyl)(((S)-1-ethoxy-1-oxopropan-2-yl)oxy)phosphoryl)amino)-2-methylpropanoate] | 19.2 | 58.7 |  |  |
| CCCCCCOC(=O)C(C)(C)NP(=O)(CO[C@H](C)Cn1cnc2c(N)ncnc21)O[C@@H](C)C(=O)OCC (stereo partly drawn) [Example 43, Hexyl 2-((((((R)-1-(6-amino-9H-purin-9-yl)propan-2-yl)oxy)methyl)(((S)-1-ethoxy-1-oxopropan-2-yl)oxy)phosphoryl)amino)-2-methylpropanoate] | 6.15 | 20.4 |  |  |
| CCCCCCOC(=O)C(C)(C)NP(=O)(CO[C@H](C)Cn1cnc2c(N)ncnc21)OC(C)(C)C(=O)OC(C)C (stereo partly drawn) [Example 44, Hexyl 2-((((((R)-1-(6-amino-9H-purin-9-yl)propan-2-yl)oxy)methyl)((1-isopropoxy-2-methyl-1-oxopropan-2-yl)oxy)phosphoryl)amino)-2-methylpropanoate] | 1.42 | 1.81 |  |  |
